Measurements taken from publication PMC5783810 (Saudi Pharmaceutical Journal : SPJ, 2017).
≈ marks a conversion by molar mass, not a printed value.

Assay: Water solubility
Conditions: for fold increase in water solubility relative to trolox: relative to trolox (0.1 g/L); for solubility at 10 min: water, thermodynamic from solid

Molecule	fold increase in water solubility relative to trolox	solubility at 10 min [µg/mL]
6-Hydroxy-2,5,7,8-tetramethylchromane-2-carboxylate 1-oxyl-2,2,5,5-tetramethylpirrolidin-4-ammonium [2h]	20 fold	
6-Hydroxy-2,5,7,8-tetramethylchromane-2-carboxylate 1-oxyl-2,2,6,6-tetramethylpiperidine-4-ammonium [2g]	10 fold	
6-Hydroxy-2,5,7,8-tetramethylchromane-2-carboxylate, 1-(1H-indol-3-yl)-N,N-dimetilmetanammonium [2q]	20–590 fold	
6-Hydroxy-2,5,7,8-tetramethylchromane-2-carboxylate, 3-(3,4-dimethoxybenzoate)-8-ammoniybicyclo[3.2.1]octane [2m]	20–590 fold	
6-Hydroxy-2,5,7,8-tetramethylchromane-2-carboxylate, 4-(N-acetylantranoiloxy)-8,9-dihydroxy-1α,14α,16β-trimethoxy-N-ethylammonium-18-norakonan [2p]	20–590 fold	
Cc1c(C)c2c(c(C)c1O)CCC(C)(C(=O)O)O2.O=c1cccc2n1CC1CNCC2C1 (stereo not drawn) [2l, 6-Hydroxy-2,5,7,8-tetramethylchromane-2-carboxylate, 1,2,3,4,5,6-hexahydro-1,5-methano-8H-pyridinium-[1,2-α][1,5]-diazotsin-8-one]	20–590 fold	
CCN(CC)CC.Cc1c(C)c2c(c(C)c1O)CCC(C)(C(=O)O)O2 (centres unmarked) [2n, 6-Hydroxy-2,5,7,8-tetramethylchromane-2-carboxylate, triethylammonium]		3000
Cc1c(C)c2c(c(C)c1O)CCC(C)(C(=O)O)O2 (centres unmarked) [compound 1, 6-hydroxy-2,5,7,8-tetra methyl chromane-2-carboxylic acid, reference compound]		100 (≈ 400 µM)
